pIC50: −log10 of the molar value. Structures can show the parent of a compound that is named as a salt.
Legend:
[1] = test system: P388 lymphocytic leukemia; experiment: Growth inhibition of tumor cells of P388 lymphocytic leukemia in vitro; type: cell-based, mouse (CDF1); details: Mus musculus, 48 hours at 37° C., read-out: 50% Inhibitory concentration of cell growth (IC50)
Procedure: (I) Growth Inhibition of Tumor Cells of P388 Lymphocytic Leukemia in Vitro:
Tumor cells were collected aseptically with capillary tube from ascites in CDF1 female mice transplanted intraperitoneally with 1×10^6cells of P388 lymphocytic leukemia 5 days before. Cell suspension was prepared at 5×10^4 cells/0.5 ml in a RPMI1640 medium supplemented with 10% fetal calf serum, kanamycin (0.1 mg/ml) and 2-hydroxyethyldisulfide (0.01 mM). Each test sample was dissolved or suspended in the medium at a concentration of 1×10^-1 -1×10^-5 mM.
A test tube with Molton stopper loosely involving 0.5 ml each of the cell suspension and the sample suspension was kept for 48 hours at 37° C. in an incubator supplied with air containing 5% carbon dioxide. […] The cells harvested therefrom was counted by using of a Coulter Counter and the inhibition of cell growth was calculated by the following formula:
Growth Inhibition (%)=(1-T/C)×100
T: number of cells in the culture containing test sample
C: number of cells in the culture of control

[2] = test system: V79 cells; experiment: Inhibitory effect on colony formation of V79 cells in vitro; type: cell-based, Chinese hamster; details: Cricetulus griseus, 96 hours with sample, read-out: 90% inhibitory concentration (IC90)
Procedure: (II) Inhibitory effect on Colony Formation of V79 Cells in Vitro:
V79 cells established from Chinese hamster lung fibroblastoma were cultured routinely on plastic dishes (.phi. 60 mm) in RPMI 1640 medium supplemented with 10% fetal calf serum and kanamycin (0.1 mg/ml). Each confluent culture was then trypsinized by the addition of 1 ml of trypsin-EDTA solution (supplied by the firm GIBCO) for 5 minutes at 37° C. in an incubator supplied with humidified air containing 5% CO2.
Homogeneous suspension of V79 cells thus obtained was diluted to 100, 200 and 400 viable cells/ml with the medium, and 1 ml each of them was transferred to other plastic dishes (.phi. 60 mm) containing 1.85 ml of the medium, and diluted to 100, 200 and 400 viable cells/dish.
Each test sample was dissolved in DMSO at the concentration of 20 mM and diluted with the medium to the final concentration of 2×10^-3 -2×10^-10 mM.
Each test dish was kept for 24 hours at 37° C. in an incubator supplied with humidified air containing 5% CO2, and was further cultured for 96 hours after 150 μl of the sample solution was added thereto.
The cells were gently washed once with Mg- and Ca-free phosphate-buffered saline [PBS(-)] and fixed with 1 ml of 3.5% HCHO-PBS(-) solution for 2 hours, then stained with a crystal violet ethanol solution.
The 90% inhibitory concentration (IC90) was calculated by comparing the number of visible colonies on the sample dish with that on the control dish.

[3] = test system: P388 lymphocytic leukemia; experiment: Increase in life span on P388 lymphocytic leukemia tumor-transplanted mouse; type: in vivo, mouse (CDF1); details: P388, ip, 24 h, intraperitoneal, day 1 and 5th day after transplantation, read-out: Rate of increase in life span (ILS); for ILS at 2.5 mg/kg: daily dose 2.5 mg/kg; for ILS at 2.2 mg/kg: daily dose 2.2 mg/kg; for ILS at 3 mg/kg: daily dose 3.0 mg/kg
Procedure: (III) Increase in Life Span on P388 Lymphocytic Leukemia Tumor-transplantedMouse:
The treated group to which the test sample was administered consisted of seven mice, while the control group consisted of ten mice. Six weeks old male mice (CDF1, 25±2 g of body weight) were employed as host animals.
Tumor cells (1.0×10^6) of P388 lymphocytic leukemia were transplanted intraperitoneally into each mouse. The treatment was effected one day after the transplantation and on 5th day by administering prescribed dose of each test sample intraperitoneally to the mice.
Antitumor activity of the test sample was evaluated by the rate of increase in life span (ILS) which was calculated with the following formula.
T': median survival time of treated mice
C': median survival time of control mice

Row | SMILES | pIC50 [1] | IC90 [2] [nM] | further results
1 | CC(=O)OCN1C(=O)CN([C@@H](C)[C@@H](C)N2CC(=O)NC(=O)C2)CC1=O (relative stereo) [Sample 9, erythro-2-(4-acetoxymethyl-3,5-dioxopiperazin-1-yl)-3-(3,5-dioxopiperazin-1-yl)butane] | 7.13 |  | 
2 | C[C@H]([C@H](C)N1CC(=O)N(COC(=O)Cc2ccccc2Cl)C(=O)C1)N1CC(=O)NC(=O)C1 (relative stereo) [Sample 10, erythro-2-[4-(2-chlorophenylacetoxymethyl)-3,5-dioxopiperazin-1-yl]-3-(3,5-dioxopiperazin-1-yl)butane] | 8.15 | 0.073 | ILS at 2.5 mg/kg [3]: 162%
3 | C[C@H]([C@H](C)N1CC(=O)N(COC(=O)COc2ccc(Cl)cc2Cl)C(=O)C1)N1CC(=O)NC(=O)C1 (relative stereo) [Sample 11, erythro-2-[4-(2,4-dichlorophenoxyacetoxymethyl)-3,5-dioxopiperazin-1-yl]-3-(3,5-dioxopiperazin-1-yl)butane] | 7.11 | 0.082 | ILS at 2.7 mg/kg ([3]; daily dose 2.7 mg/kg): 132%
4 | C[C@H]([C@H](C)N1CC(=O)N(COC(=O)c2ccccc2)C(=O)C1)N1CC(=O)NC(=O)C1 (relative stereo) [Sample 13, erythro-2-(4-benzoyloxymethyl-3,5-dioxopiperazin-1-yl)-3-(3,5-dioxopiperazin-1-yl)butane] | 7.42 |  | ILS at 2.2 mg/kg [3]: 118%
5 | C[C@H]([C@H](C)N1CC(=O)N(COC(=O)OCc2ccc([N+](=O)[O-])cc2)C(=O)C1)N1CC(=O)NC(=O)C1 (relative stereo) [Sample 15, erythro-2-[4-(4-nitrobenzyloxycarbonyloxymethyl)-3,5-dioxopiperazin-1-yl]-3-(3,5-dioxopiperazin-1-yl)butane] | 6.62 |  | ILS at 2.6 mg/kg ([3]; daily dose 2.6 mg/kg): 177%
6 | C[C@H]([C@H](C)N1CC(=O)N(COC(=O)c2ccco2)C(=O)C1)N1CC(=O)NC(=O)C1 (relative stereo) [Sample 18, erythro-2-[4-(2-furoyloxymethyl)-3,5-dioxopiperazin-1-yl]-3-(3,5-dioxopiperazin-1-yl)butane] | 7.38 | 0.1 | ILS at 2.2 mg/kg [3]: 185%
7 | C[C@H]([C@H](C)N1CC(=O)N(COC(=O)OCc2ccccc2)C(=O)C1)N1CC(=O)NC(=O)C1 (relative stereo) [Sample 19, erythro-2-(4-benzyloxycarbonyloxymethyl-3,5-dioxopiperazin-1-yl)-3-(3,5-dioxopiperazin-1-yl)butane] | 7.96 | 0.09 | ILS at 2.4 mg/kg ([3]; daily dose 2.4 mg/kg): 132%
8 | CC(=O)OCN1C(=O)CN([C@H](C)[C@H](C)N2CC(=O)N(COC(C)=O)C(=O)C2)CC1=O [Sample 1, meso-2,3-bis(4-acetoxymethyl-3,5-dioxopiperazin-1-yl)butane] | 6.52 | 0.089 | ILS at 1.5 mg/kg ([3]; daily dose 1.5 mg/kg): 152%
9 | C[C@H]([C@H](C)N1CC(=O)N(COC(=O)Cc2ccccc2Cl)C(=O)C1)N1CC(=O)N(COC(=O)Cc2ccccc2Cl)C(=O)C1 [Sample 2, meso-2,3-bis[4-(2-chlorophenylacetoxymethyl)-3,5-dioxopiperazin-1-yl]butane] | 8.07 |  | ILS at 3.4 mg/kg ([3]; daily dose 3.4 mg/kg): 107%
10 | C[C@H]([C@H](C)N1CC(=O)N(COC(=O)COc2ccc(Cl)cc2Cl)C(=O)C1)N1CC(=O)N(COC(=O)COc2ccc(Cl)cc2Cl)C(=O)C1 [Sample 3, meso-2,3-bis[4-(2,4-dichlorophenoxyacetoxymethyl)-3,5-dioxopiperazin-1-yl]butane] | 7.15 |  | 
11 | CC(C(C)N1CC(=O)N(COC(=O)C=Cc2cccc(Cl)c2)C(=O)C1)N1CC(=O)N(COC(=O)C=Cc2cccc(Cl)c2)C(=O)C1 (stereo not drawn) [Sample 4, meso-2,3-bis[4-(3-chlorocinnamoyloxymethyl)-3,5-dioxopiperazin-1-yl]butane] | 6.62 |  | 
12 | C[C@H]([C@H](C)N1CC(=O)N(COC(=O)[C@H](NC(=O)OC(C)(C)C)c2ccccc2)C(=O)C1)N1CC(=O)N(COC(=O)[C@H](NC(=O)OC(C)(C)C)c2ccccc2)C(=O)C1 [Sample 5, meso-2,3-bis[4-[(R)-2-N-tert-butoxycarbonylamino-2-phenylacetoxymethyl]-3,5-dioxopiperazin-1-yl]butane] | 7.49 |  | 
13 | C[C@H]([C@H](C)N1CC(=O)N(COC(=O)[C@H](N)c2ccccc2)C(=O)C1)N1CC(=O)N(COC(=O)[C@H](N)c2ccccc2)C(=O)C1 [Sample 6, meso-2,3-bis[4-[(R)-2-amino-2-phenylacetoxymethyl]-3,5-dioxopiperazin-1-yl]butane trifluoroacetate] | 7.28 |  | 
14 | CC(C)COC(=O)OCN1C(=O)CN([C@H](C)[C@H](C)N2CC(=O)N(COC(=O)OCC(C)C)C(=O)C2)CC1=O [Sample 7, meso-2,3-bis(4-isobutoxycarbonyloxymethyl-3,5-dioxopiperazin-1-yl)butane] | 7.08 | 0.0045 | ILS at 3 mg/kg [3]: 104%
15 | C[C@H]([C@H](C)N1CC(=O)N(COC(=O)OCc2ccc([N+](=O)[O-])cc2)C(=O)C1)N1CC(=O)N(COC(=O)OCc2ccc([N+](=O)[O-])cc2)C(=O)C1 [Sample 8, meso-2,3-bis[4-(4-nitrobenzyloxycarbonyloxymethyl)-3,5-dioxopiperazin-1-yl]butane] | 6.82 |  | 
16 | CC(C(C)N1CC(=O)N(COC(=O)C=Cc2cccc(Cl)c2)C(=O)C1)N1CC(=O)NC(=O)C1 (stereo not drawn) [Sample 12, erythro-2-[4-(3-chlorocinnamoyloxymethyl)-3,5-dioxopiperazin-1-yl]-3-(3,5-dioxopiperazin-1-yl)butane] | 7.96 | 0.098 | ILS at 2.5 mg/kg [3]: 90%
17 | C[C@H]([C@H](C)N1CC(=O)N(COC(=O)c2ccccc2)C(=O)C1)N1CC(=O)N(COC(=O)c2ccccc2)C(=O)C1 [Sample 16, meso-2,3-bis(4-benzoyloxymethyl-3,5-dioxopiperazin-1-yl)butane] | 6.60 | 0.098 | ILS at 3 mg/kg [3]: 150%
18 | C[C@H]([C@H](C)N1CC(=O)N(COC(=O)OCc2ccccc2)C(=O)C1)N1CC(=O)N(COC(=O)OCc2ccccc2)C(=O)C1 [Sample 17, meso-2,3-bis(4-benzyloxycarbonyloxymethyl-3,5-dioxopiperazin-1-yl)butane] | 7.25 |  | ILS at 3.2 mg/kg ([3]; daily dose 3.2 mg/kg): 179%
19 | CC(C)COC(=O)OCN1C(=O)CN(CCN2CC(=O)N(COC(=O)OCC(C)C)C(=O)C2)CC1=O [Sample A, 1,2-bis(4-isobutoxycarbonyloxymethyl-3,5-dioxopiperazin-1-yl)ethane, reference compound] | 4.80 | 110 | ILS at 3 mg/kg [3]: 5%; ILS at 250 mg/kg ([3]; daily dose 250 mg/kg (*Adequate dose)): 106%
20 | C[C@H]([C@H](C)N1CC(=O)NC(=O)C1)N1CC(=O)NC(=O)C1 [Sample B, meso-2,3-bis(3,5-dioxopiperazin-1-yl)butane, reference compound] |  | 5.3 | 
